Laboratory results from US20060222657A1, “Polypeptide transduction and fusogenic peptides” (priority 2003, published 2006).
Entries after “also recorded” stand apart in the source; their conditions may differ. Where no end group is shown, it is not given here. [ ]: non-standard residue; d: D form.

Columns and labels:
[1] = tested on: tex.loxP.EG cells; test: TAT-Cre mediated recombination of lox-stop-lox eGFP reporter, flow cytometry of live cells; assay type: cell-based, murine; details: for effect on TAT-Cre recombination (endocytosis inhibitors): pretreated 30′ in serum-free media, then TAT-Cre for 1 h, replated overnight; for effect on TAT-Cre recombination (free glycosaminglyans): incubated with TAT-Cre 1 hr in serum-free media, eGFP after 16 hr
[2] = tested on: 3T3 loxP.lacZ cells; test: TAT-Cre recombination of lacZ reporter, in situ β-galactosidase staining; assay type: cell-based; details: 100 μM and 200 μM chloroquine with sub-threshold TAT-Cre, overnight, DMEM +10% serum
Method: 3T3 loxP.lacZ cells containing a lacZ reporter expressed after recombination were grown in DMEM (Invitrogen) containing 10% fetal bovine serum. Following recombination cells expressing lacZ were assayed by in situ beta-galactosidase staining (Stratagene).
To determine the effect of endosomal release by chloroquine, 3T3 loxP.lacZ cells were treated with 0. 25 μM TAT-Cre and 0-200 μM chlorocguine (Sigma) in DMEM +10% FBS overnight. LacZ expression was measured by in situ β-galactosidase staining (Stratagene).

[3] = tested on: 3T3 LacZ reporter cells; test: Cytotoxicity (loss of cells) of chloroquine treatment; assay type: cell-based; details: effective dose of chloroquine; multiple several cell lines
Method: To recombine DNA and induce eGFP expression, TAT-Cre must escape from macropinosomes. […] Therefore to enhance release from macropinosomes, 3T3 LacZ reporter cells were treated with a sub-threshold dose of TAT-Cre in combination with increasing concentrations of chloroquine, an ion-transporting ATPase inhibitor that prevents vesicle acidification leading to endosomal disruption (FIG. 5a).

[4] = tested on: mammalian cells; test: TAT-Cre transduction efficiency and cytotoxicity with endosomal release agents (summary statement); assay type: cell-based
[5] = tested on: tex.loxP.EG cells; test: TAT-Cre-488 and FM4-64 internalization by flow cytometry; assay type: cell-based, murine; details: nystatin 30′ pretreatment, then TAT-Cre-488 and FM4-64 for 1 h
Method: Recombination experiments. To measure the rate of TAT-Cre internalization, tex.loxP.EG cells were plated at 5×10^5 cells/well and treated with 0.5 μM TAT-Cre in RPMI +/− 10% FBS. After each time period, cells were trypsinized for 2′, washed and replated into complete media overnight. For all drug treatments [0-50 μg/mL chondroitin sulfate A, B, or C (Sigma), 0-25 μg/mL heparin (Sigma), 0-100 μg/mL nystatin (Fluka), 0-5 mM […] (Sigma), 0-5 mM amiloride (Sigma) and 0-10 μM cytochalasin D (Sigma)], cells were washed and pretreated for 30′ in serum-free media before the addition of TAT-Cre. Cells were maintained for 1 h in the presence of inhibitors (except for cyclodextrin) aftex which they were washed twice and replated overnight in media containing serum. To measure the effect of nystatin on TAT-Cre internalization, tex.loxP.EG cells were pretreated as described with 10, 25 or 50 μg/mL nystatin for 30′ before the addition of 2 μM TAT-Cre-488 and […] FM4-64. After 1 h, the cells were trypsinized and the fluorescence measured by flow cytometry. […] LacZ expression was measured by in situ β-galactosidase staining (Stratagene). For peptide treatments, tex.loxP.EG cells maintained in RPMI +10% FBS were incubated TAT-Cre and either […] HA2-tat or tat peptide for 16-20 h after which eGFP expression was measured by flow cytometry. […]

[6] = tested on: cells; details: cited from earlier work
[7] = tested on: tex.loxP.EG T cells; test: Cell surface binding of TAT-Cre; assay type: cell-based, murine; details: free glycosaminglyans in increasing concentrations, 1 hr, serum-free media
Method: Full-length TAT protein has previously been reported to bind strongly to cell surface heparin sulfate proteoglycans. […] To determine whether cell surface binding was a necessary and prerequisite step for TAT-Cre internalization, cells were incubated with TAT-Cre and increasing concentrations of free glycosaminglyans for 1 hr in serum-free media, then washed and replated the cells in complete media, and measured eGFP expression after 16 hr.

[8] = tested on: cell surface; details: increasing concentrations of polyanions; cited from earlier work
[9] = tested on: viral promoter within cells in culture; details: cited from earlier work

N=C(N)NC(=O)c1nc(Cl)c(N)nc1N [amiloride]
effect on TAT-Cre recombination (endocytosis inhibitors) [1]: dose-dependent inhibition of TAT-Cre transduction into the cells and lack of recombination; also recorded: dose-dependent decrease in recombination

CCN(CC)CCCC(C)Nc1ccnc2cc(Cl)ccc12 (stereo not drawn) [chloroquine]
effect on TAT-Cre recombination and LacZ expression [2]: significant increase in recombination and LacZ expression; also recorded: increases TAT-Cre recombination
cytotoxicity [3]: extensive cytotoxicity
cytotoxicity [4]: extensive cytotoxicity
effect on transduction efficiency of TAT-Cre [4]: moderately increased transduction efficiency

C=C1[C@@H](C)[C@H]2[C@H](Cc3ccccc3)NC(=O)[C@]23[C@H](OC(C)=O)/C=C/[C@@](C)(O)C(=O)[C@@H](C)C/C=C/[C@H]3[C@@H]1O [cytochalasin D]
effect on TAT-Cre recombination (endocytosis inhibitors) [1]: dose-dependent inhibition of TAT-Cre transduction into the cells and lack of recombination; also recorded: dose-dependent decrease in recombination

C[C@@H]1[C@H](O)[C@@H](C)/C=C/C=C/CC/C=C/C=C/C=C/C=C/C(O[C@H]2O[C@H](C)[C@@H](O)[C@H](N)[C@@H]2O)CC2O[C@](O)(CC(O)C(O)CCC(O)CC(O)CC(O)CC(=O)O[C@H]1C)CC(O)C2C(=O)O (stereo partly drawn) [nystatin]
effect of nystatin pretreatment on HA2-TAT-mediated enhancement of recombination ([1]; nystatin 30′ in serum-free media, then TAT-Cre +/− 5 mM HA2-TAT for 1 h): inhibited HA2-TAT-mediated enhancement of recombination; also recorded: blocks the effect of HA2-TAT peptide
effect on TAT-Cre recombination (endocytosis inhibitors) [1]: dose-dependent inhibition of recombination
FM4-64 endosomal dye internalization after nystatin treatment [5]: only a minor decrease
TAT-Cre-488 internalization after nystatin treatment [5]: near complete loss of TAT-Cre-488 internalization

OC[C@H]1O[C@@H]2O[C@H]3[C@H](O)[C@@H](O)[C@@H](O[C@H]4[C@H](O)[C@@H](O)[C@@H](O[C@H]5[C@H](O)[C@@H](O)[C@@H](O[C@H]6[C@H](O)[C@@H](O)[C@@H](O[C@H]7[C@H](O)[C@@H](O)[C@@H](O[C@H]8[C@H](O)[C@@H](O)[C@@H](O[C@H]1[C@H](O)[C@H]2O)O[C@@H]8CO)O[C@@H]7CO)O[C@@H]6CO)O[C@@H]5CO)O[C@@H]4CO)O[C@@H]3CO [β-cyclodextrin]
effect on TAT-Cre recombination (endocytosis inhibitors) [1]: dose-dependent inhibition of recombination

FITKALGISYGRKKRR [TAT-(37-53)]
cell internalization and nuclear localization [6]: not able to transduce into cells

GRKKRRQ RRRPPQ (GRKKRRQRRRPPQ) [TAT-(48-60)]
cell internalization and nuclear localization [6]: fully retained the ability for cell internalization and nuclear localization
transduction efficiency relative to other active peptide sequences [6]: more efficiently transduced than other active peptide sequences

GRKKRRQRRR (G[dR][dK][dK][dR][dR][dQ][dR][dR][dR]) [TAT D-isomer peptide, control TAT peptide]
effect of peptide on TAT-Cre recombination (in words) [1]: only minor increases in recombination

LGISYGRKKRRQRRRPPQ [TAT-(43-60)]
cell internalization and nuclear localization [6]: fully retained the ability for cell internalization and nuclear localization

chondroitin sulfate B
effect on TAT-Cre recombination (free glycosaminglyans) [1]: strongly inhibited subsequent recombination
effect on surface binding of TAT-Cre [7]: prevented surface binding of TAT-Cre

chondroitin sulfate C
effect on TAT-Cre recombination (free glycosaminglyans) [1]: strongly inhibited subsequent recombination
effect on surface binding of TAT-Cre [7]: prevented surface binding of TAT-Cre

dextran sulphate
effect on intracellular accumulation of TAT [8]: competitively blocked

heparin
effect on TAT-Cre recombination (free glycosaminglyans) [1]: strongly inhibited subsequent recombination
effect on surface binding of TAT-Cre [7]: prevented surface binding of TAT-Cre
effect on intracellular accumulation of TAT [8]: competitively blocked

B1: Cre: control Cre protein without TAT, expressed and purified under identical conditions (protein, UniProt P06956 1-343, looked up)
Recombinase cre: MSNLLTVHQNLPALPVDATSDEVRKNLMDMFRDRQAFSEHTWKMLLSVCRSWAAWCKLNNRKWFPAEPEDVRDYLLYLQARGLAVKTIQQHLGQLNMLHRRSGLPRPSDSNAVSLVMRRIRKENVDAGERAKQALAFERTDFDQVRSLMENSDRCQDIRNLAFLGIAYNTLLRIAEIARIRVKDISRTDGGRMLIHIGRTKTLVSTAGVEKALSLGVTKLVERWISVSGVADDPNNYLFCRVRKNGVAAPSATSQLSTRALEGIFEATHRLIYGAKDDSGQRYLAWSGHSARVGAARDMARAGVSIPEIMQAGGWTNVNIVMNYIRNLDSETGAMVRLLEDGD
site specific recombination and eGFP expression after treatment ([1]; tex.loxP.EG cells, eGFP measured 16-20 h later by flow cytometry): failed to undergo recombination and express eGFP

B2: TAT protein: HIV-1 transcriptional activator TAT protein, full length (protein)
chain: MEPVDPRLEPWKHPGSQPKTACTNCYCKKCCFHCQVCFITKALGISYGRKKRRQRRRPPQGSQTHQVSLSKQPTSQSRGDPTGPKE
modifications: transducing protein
concentration sufficient to induce reporter activity ([9]; added to the culture media, no external perturbations): 1 nM
treatment time of maximal increase in biological activity ([9]; all cell types used): 5 minutes
